# From US12077555B2, “STAT degraders and uses thereof” (Kymera Therapeutics, Inc., priority 2019, dated 2024)
# Target: STAT3 (Homo sapiens, UniProt P40763)
# Assay: STAT3 HiBiT degradation assay in transfected A549 cells
# Assay type: cell-based
# Design: expressed in transfected cells; host or cells: A549
# Conditions: A549, 24 h; read-out: STAT3 HiBiT A549 degradation 24 h: Average external-Abs DC50
# In short: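 Degradation read as HiBiT-tagged STAT3 luminescence (Nano-Glo lytic reagent, 10 min, room temperature) following 24 h compound treatment of transfected A549 cells at 3-fold, 10 points. Percent remaining signal computed against controls and fitted with a four-parameter logistic; DC50 reported as letter bins (A <0.01 to D >1.0 µM).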
# Chain of STAT3 (P40763 whole entry): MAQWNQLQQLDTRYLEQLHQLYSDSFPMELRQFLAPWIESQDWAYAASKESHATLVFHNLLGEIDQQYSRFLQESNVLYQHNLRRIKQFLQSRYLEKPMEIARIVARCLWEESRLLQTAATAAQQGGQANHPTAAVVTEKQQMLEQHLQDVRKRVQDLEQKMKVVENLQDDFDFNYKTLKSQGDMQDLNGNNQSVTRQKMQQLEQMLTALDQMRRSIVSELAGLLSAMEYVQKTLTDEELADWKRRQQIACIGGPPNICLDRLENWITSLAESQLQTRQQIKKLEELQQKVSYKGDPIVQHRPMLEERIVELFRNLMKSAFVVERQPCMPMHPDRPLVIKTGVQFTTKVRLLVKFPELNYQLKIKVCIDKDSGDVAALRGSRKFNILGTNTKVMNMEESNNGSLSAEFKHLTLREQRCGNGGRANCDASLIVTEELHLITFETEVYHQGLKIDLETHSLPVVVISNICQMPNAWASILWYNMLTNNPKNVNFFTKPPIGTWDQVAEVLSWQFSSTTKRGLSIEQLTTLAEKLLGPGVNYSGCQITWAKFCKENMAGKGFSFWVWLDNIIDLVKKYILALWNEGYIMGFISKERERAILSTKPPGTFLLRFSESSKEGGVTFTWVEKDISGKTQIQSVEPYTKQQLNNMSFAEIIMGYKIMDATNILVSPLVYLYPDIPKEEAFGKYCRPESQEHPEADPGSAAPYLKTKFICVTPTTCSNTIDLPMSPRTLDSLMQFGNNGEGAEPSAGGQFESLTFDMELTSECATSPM
row,SMILES,DC50 [nM]
1,"Cn1c(=O)n(C2CCC(=O)NC2=O)c2ccc(CC3CCN(CC(=O)N4CC[C@H]5CC[C@@H](C(=O)N[C@@H](CCC(N)=O)C(=O)NC(c6ccccc6)c6ccccc6)N5C(=O)[C@@H](NC(=O)c5cc6cc(C(=O)P(=O)(O)O)ccc6[nH]5)C4)CC3)cc21 (stereo partly drawn) [Compound I-158, 2-[[(5S,8S,10aR)-8-[[(1S)-3-carbamoyl-1-(diphenylmethylcarbamoyl)propyl]carbamoyl]-3-[2-(4-[[1-(2,6-dioxopiperidin-3-yl)-3-methyl-2-oxo-1,3-benzodiazol-5-yl]methyl]piperidin-1-yl)acetyl]-6-oxo-octahydropyrrolo[1,2-a][1,5]diazocin-5-yl]carbamoyl]-1H-indole-5-carbonylphosphonic acid]",> 1000
2,Cc1ncsc1-c1ccc(CNC(=O)[C@@H]2C[C@@H](O)CN2C(=O)[C@@H](NC(=O)CCCCCC#CCOC[C@H](CCC(N)=O)NC(=O)[C@@H]2Cc3cccc4c3N2C(=O)[C@@H](NC(=O)c2cc3cc(C(=O)P(=O)(O)O)ccc3[nH]2)CC4)C(C)(C)C)cc1 [Compound I-159],100 to 1000
3,"Cc1ncsc1-c1ccc(CNC(=O)[C@@H]2C[C@@H](O)CN2C(=O)[C@@H](NC(=O)CCC2CCN(c3ccc(CO[C@H](C)[C@H](CCC(N)=O)NC(=O)[C@@H]4Cc5cccc6c5N4C(=O)[C@@H](NC(=O)c4cc5cc(C(=O)P(=O)(O)O)ccc5[nH]4)CC6)cc3)CC2)C(C)(C)C)cc1 [Compound I-160, diammonium 2-[[(2S,11S)-2-[[(3S,4R)-1-carbamoyl-4-([4-[4-(2-[[(2S)-1-[(2S,4R)-4-hydroxy-2-([[4-(4-methyl-1,3-thiazol-5-yl)phenyl]methyl]carbamoyl)pyrrolidin-1-yl]-3,3-dimethyl-1-oxobutan-2-yl]carbamoyl]ethyl)piperidin-1-yl]phenyl]methoxy)pentan-3-yl]carbamoyl]-12-oxo-1-azatricyclo[6.4.1.0^4,13]]trideca-4(13),5,7-trien-11-yl]carbamoyl]-1H-indole-5-carbonylpho sphonate]",> 1000
4,Cc1ncsc1-c1ccc(CNC(=O)[C@@H]2C[C@@H](O)CN2C(=O)[C@@H](NC(=O)C2CCN(c3ccc(CO[C@H](C)[C@H](CCC(N)=O)NC(=O)[C@@H]4Cc5cccc6c5N4C(=O)[C@@H](NC(=O)c4cc5cc(C(=O)P(=O)(O)O)ccc5[nH]4)CC6)cc3)CC2)C(C)(C)C)cc1 [Compound I-161],> 1000
5,"Cc1ncsc1-c1ccc(CNC(=O)[C@@H]2C[C@@H](O)CN2C(=O)[C@@H](NC(=O)CC2CCN(c3ccc(CO[C@H](C)[C@H](CCC(N)=O)NC(=O)[C@@H]4Cc5cccc6c5N4C(=O)[C@@H](NC(=O)c4cc5cc(C(=O)P(=O)(O)O)ccc5[nH]4)CC6)cc3)CC2)C(C)(C)C)cc1 [Compound I-162, diammonium 2-[[(2S,11S)-2-[[(3S,4R)-1-carbamoyl-4-([4-[4-([[(2S)-1-[(2S,4R)-4-hydroxy-2-([[4-(4-methyl-1,3-thiazol-5-yl)phenyl]methyl]carbamoyl)pyrrolidin-1-yl]-3,3-dimethyl-1-oxobutan-2-yl]carbamoyl]methyl)piperidin-1-yl]phenyl]methoxy)pentan-3-yl]carbamoyl]-12-oxo-1-azatricyclo[6.4.1.0^[4,13]]trideca-4(13),5,7-trien-11-yl]carbamoyl]-1H-indole-5-carbonylphosphonate]",> 1000
6,Cc1ncsc1-c1ccc(CNC(=O)[C@@H]2C[C@@H](O)CN2C(=O)[C@@H](NC(=O)CC2CC(Cc3ccc(CO[C@H](C)[C@H](CCC(N)=O)NC(=O)[C@@H]4Cc5cccc6c5N4C(=O)[C@@H](NC(=O)c4cc5cc(C(=O)P(=O)(O)O)ccc5[nH]4)CC6)cc3)C2)C(C)(C)C)cc1 (stereo partly shown) [Compound I-163],> 1000
7,"Cc1ncsc1-c1ccc(CNC(=O)[C@@H]2C[C@@H](O)CN2C(=O)[C@@H](NC(=O)CCCCCc2cccc(OC[C@H](CCC(N)=O)NC(=O)[C@@H]3Cc4cccc5c4N3C(=O)[C@@H](NC(=O)c3cc4cc(C(=O)P(=O)(O)O)ccc4[nH]3)CC5)c2)C(C)(C)C)cc1 [Compound I-164, 2-[[(2S,11S)-2-[[(2S)-4-carbamoyl-1-[3-(5-[[(2S)-1-[(2S,4R)-4-hydroxy-2-([[4-(4-methyl-1,3-thiazol-5-yl)phenyl]methyl]carbamoyl)pyrrolidin-1-yl]-3,3-dimethyl-1-oxobutan-2-yl]carbamoyl]pentyl)phenoxy]butan-2-yl]carbamoyl]-12-oxo-1-azatricyclo[6.4.1.0^[4,13]]trideca-4(13),5,7-trien-11-yl]carbamoyl]-1H-indole-5-carbonylphosphonic acid]",10 to 100
8,CC(=O)N1CC[C@H]2CC[C@@H](C(=O)N[C@@H](CCC(N)=O)[C@@H](C)OCc3ccc(CCCCC(=O)N[C@H](C(=O)N4C[C@H](O)C[C@H]4C(=O)NCc4ccc(-c5scnc5C)cc4)C(C)(C)C)cc3)N2C(=O)[C@@H](NC(=O)c2cc3cc(C(=O)P(=O)(O)O)ccc3[nH]2)C1 [Compound I-165],100 to 1000
9,"Cn1c(=O)n(C2CCC(=O)NC2=O)c2ccc(C[C@H]3CC[C@H](CC(=O)N4CC[C@H]5CC[C@@H](C(=O)N[C@@H](CCC(N)=O)C(=O)NC(c6ccccc6)c6ccccc6)N5C(=O)[C@@H](NC(=O)c5cc6cc(C(=O)P(=O)(O)O)ccc6[nH]5)C4)CC3)cc21 (stereo partly drawn) [Compound I-166, 2-[[(5S,8S,10aR)-8-[[(1S)-3-carbamoyl-1-(diphenylmethylcarbamoyl)propyl]carbamoyl]-6-oxo-3-[2-[(1r, 4r)-4-[[1-(2,6-dioxopiperidin-3-yl)-3-methyl-2-oxo-1,3-benzodiazol-5-yl]methyl]cyclohexyl]acetyl]-octahydropyrrolo[1,2-a][1,5]diazocin-5-yl]carbamoyl]-1H-indole-5-carbonylphosphonic acid]",10 to 100
10,Cn1c(=O)n(C2CCC(=O)NC2=O)c2ccc(C[C@H]3CC[C@H](CCC(=O)N4CC[C@H]5CC[C@@H](C(=O)N[C@@H](CCC(N)=O)C(=O)NC(c6ccccc6)c6ccccc6)N5C(=O)[C@@H](NC(=O)c5cc6cc(C(=O)P(=O)(O)O)ccc6[nH]5)C4)CC3)cc21 (stereo partly shown) [Compound I-167],100 to 1000
11,"Cn1c(=O)n(C2CCC(=O)NC2=O)c2ccc(N3CCN(CCCC(=O)N4CC[C@H]5CC[C@@H](C(=O)N[C@@H](CCC(N)=O)C(=O)NC(c6ccccc6)c6ccccc6)N5C(=O)[C@@H](NC(=O)c5cc6cc(C(=O)P(=O)(O)O)ccc6[nH]5)C4)CC3)cc21 (stereo partly drawn) [Compound I-168, 2-[[(5S,8S,10aR)-8-[[(1S)-3-carbamoyl-1-(diphenylmethylcarbamoyl)propyl]carbamoyl]-3-(4-[4-[1-(2,6-dioxopiperidin-3-yl)-3-methyl-2-oxo-1,3-benzodiazol-5-yl]piperazin-1-yl]butanoyl)-6-oxo-octahydropyrrolo[1,2-a][1,5]diazocin-5-yl]carbamoyl]-1H-indole-5-carbonylphosphonic acid]",> 1000
12,"Cn1c(=O)n(C2CCC(=O)NC2=O)c2ccc(C3CCN(CCCC(=O)N4CC[C@H]5CC[C@@H](C(=O)N[C@@H](CCC(N)=O)C(=O)NC(c6ccccc6)c6ccccc6)N5C(=O)[C@@H](NC(=O)c5cc6cc(C(=O)P(=O)(O)O)ccc6[nH]5)C4)CC3)cc21 (stereo partly drawn) [Compound I-169, 2-[[(5S,8S,10aR)-8-[[(1S)-3-carbamoyl-1-(diphenylmethylcarbamoyl)propyl]carbamoyl]-3-(4-[4-[1-(2,6-dioxopiperidin-3-yl)-3-methyl-2-oxo-1,3-benzodiazol-5-yl]piperidin-1-yl]butanoyl)-6-oxo-octahydropyrrolo[1,2-a][1,5]diazocin-5-yl]carbamoyl]-1H-indole-5-carbonylphosphonic acid]",100 to 1000
13,"Cc1ncsc1-c1ccc(CNC(=O)[C@@H]2C[C@@H](O)CC2C(=O)[C@@H](NC(=O)CCc2ccc(CCCOC[C@H](CCC(N)=O)NC(=O)[C@@H]3Cc4cccc5c4N3C(=O)[C@@H](NC(=O)c3cc4cc(C(=O)P(=O)(O)O)ccc4[nH]3)CC5)cc2)C(C)(C)C)cc1 (stereo partly drawn) [Compound I-170, diammonium 2-[[(2S,11S)-2-[[(2S)-4-carbamoyl-1-[3-[4-(2-[[(2S)-1-[(2S,4R)-4-hydroxy-2-([[4-(4-methyl-1,3-thiazo1-5-yl)phenyl]methyl]carbamoyl)pyrrolidin-1-yl]-3,3-dimethyl-1-oxobutan-2-yl]carbamoyl]ethyl)phenyl]propoxy]butan-2-yl]carbamoyl]-12-oxo-1-azatricyclo[6.4.1.0^[4,13]]trideca-4(13),5,7-trien-11-yl]carbamoyl]-1H-indole-5-carbonylphosphonate]",> 1000
14,Cc1ncsc1-c1ccc(CNC(=O)[C@@H]2C[C@@H](O)CC2C(=O)[C@@H](NC(=O)CCCCC/C=C\COC[C@H](CCC(N)=O)NC(=O)[C@@H]2Cc3cccc4c3N2C(=O)[C@@H](NC(=O)c2cc3cc(C(=O)P(=O)(O)O)ccc3[nH]2)CC4)C(C)(C)C)cc1 (stereo partly shown) [Compound I-171],100 to 1000
15,"CC(=O)N1CC[C@H]2CC[C@@H](C(=O)N[C@@H](CCC(N)=O)C(=O)NCCCCCCCC(=O)N[C@H](C(=O)N3C[C@H](O)C[C@H]3C(=O)NCc3ccc(-c4scnc4C)cc3)C(C)(C)C)N2C(=O)[C@@H](NC(=O)c2cc3cc(C(=O)P(=O)(O)O)ccc3[nH]2)C1 [Compound I-172, 2-[[(5S,8S,10aR)-3-acetyl-8-[[(1S)-3-carbamoyl-1-[(7-[[(2S)-1-[(2S,4R)-4-hydroxy-2-([[4-(4-methyl-1,3-thiazol-5-yl)phenyl]methyl]carbamoyl)pyrrolidin-1-yl]-3,3-dimethyl-1-oxobutan-2-yl]carbamoyl]heptyl)carbamoyl]propyl]carbamoyl]-6-oxo-octahydropyrrolo[1,2-a][1,5]diazocin-5-yl]carbamoyl]-1H-indole-5-carbonylphosphonic acid]",> 1000
16,CC(=O)N1CC[C@H]2CC[C@@H](C(=O)N[C@@H](CCC(N)=O)C(=O)NCCCCCCCCC(=O)N[C@H](C(=O)N3C[C@H](O)C[C@H]3C(=O)NCc3ccc(-c4scnc4C)cc3)C(C)(C)C)N2C(=O)[C@@H](NC(=O)c2cc3cc(C(=O)P(=O)(O)O)ccc3[nH]2)C1 [Compound I-173],> 1000
